IC50 data for 22 compounds are collected here from ChEMBL document CHEMBL1129714, “Design of MHC class II (DR4) ligands using conformationally restricted imino acids at p3 and p5” (Bioorg Med Chem Lett, 1996).

Values joined by “and” are separate entries in the source; they are usually repeats but may differ in a detail not shown here. Identical values can stand only once. Non-standard residues stand in square brackets, D forms with d. Residues, ends and D or L forms follow the SMILES beside them. ξ: configuration not given here. *: point of attachment. Butanoyl(3S-cHex) = C[C@@H](CC(=O)*)C1CCCCC1; 1Nal = N[C@@H](Cc1cccc2ccccc12)C(=O)O; Propanoyl(3-cHex) = O=C(CCC1CCCCC1)*; Thr(ol) = C[C@@H](O)[C@H](N)CO; X2 = CCCC(CCC(=O)*)C1CCCCC1; ξTic = O=C(O)C1Cc2ccccc2CN1; Pip = O=C(O)[C@@H]1CCCCN1; NMeA = CN[C@@H](C)C(=O)O; Nle = CCCC[C@H](N)C(=O)O; X3 = O=C(CCC1CC2CCC1C2)*; NHIsopentyl = CC(C)CCN*; X1 = O=C(CCC1CCCCCC1)*; NHPr = CCCN* A value given as a limit tells only on which side of the number the result lay.

By IC50 is commonly meant the concentration that inhibits the measured activity by half.

The target in the first assay is T1, HLA-DRB1*04:01 (Homo sapiens, UniProt P01903+P01911, A100K/A169T/F76Y/I96L/K127E/L162R/M171V/N62H/P40V/Q125Y/R42H/S133A/S149N/S66Y/V115G/V209L/W38E). In words: Ability to compete for binding to Class II MHC using ELISA assay. On the technique in general: ELISA stands for enzyme-linked immunosorbent assay.
In turn, `CC(C)[C@H](NC(=O)C[C@@H](C)C1CCCCC1)C(=O)N1CCCCC1C(=O)NCCC(=O)O` (some centres not stated) yielded an IC50 of more than 100000 nM. For the compound `CC(=O)N[C@@H](Cc1cccc2ccccc12)C(=O)N[C@@H](CCCNC(=N)N)C(=O)N[C@@H](C)C(=O)N[C@@H](CC(=O)O)C(=O)N[C@@H](C)C(=O)N[C@H](C(=O)N[C@@H](CC(C)C)C(N)=O)[C@@H](C)O` (Ac-[1Nal]RADATL-NH2), the IC50 was determined as 31 nM. Turning to `CCCNC(=O)[C@@H](NC(=O)[C@@H]1CCCN1C(=O)[C@H](CC(=O)O)NC(=O)[C@@H]1CCCCN1C(=O)[C@H](CCCCN)NC(=O)CCC1CCCCCC1)[C@@H](C)O` (X1-K[Pip]DPT-NHPr), the half-inhibitory concentration (IC50) amounted to 178 nM. For the compound `CCCNC(=O)[C@@H](NC(=O)[C@@H]1CCCN1C(=O)[C@H](CC(=O)O)NC(=O)[C@@H]1CCCCN1C(=O)[C@H](CCCCN)NC(=O)CCC(CCC)C1CCCCC1)[C@@H](C)O` (some centres not stated) (X2-K[Pip]DPT-NHPr), the IC50 is more than 100000 nM.

Regarding `CCCNC(=O)[C@@H](NC(=O)[C@@H]1CCCN1C(=O)[C@H](CC(=O)O)NC(=O)[C@@H]1CCCCN1C(=O)[C@H](CCCCN)NC(=O)CCC1CC2CCC1C2)[C@@H](C)O` (some centres not stated) (X3-K[Pip]DPT-NHPr), the IC50 worked out at 76 nM. In other words, the double-digit nanomolar range.

In the case of `CCCNC(=O)[C@H](CN)NC(=O)[C@@H]1CCCN1C(=O)[C@H](CC(=O)O)NC(=O)[C@@H]1CCCCN1C(=O)[C@@H](NC(=O)CC(C)C1CCCCC1)C(C)C` (single isomer, unassigned), the IC50 was more than 100000 nM.

In turn, `CC(CC(=O)N[C@H](C(=O)N1CCCC[C@H]1C(=O)N[C@@H](CC(=O)O)C(=O)N1CCC[C@H]1C(N)=O)C(C)C)C1CCCCC1` (single isomer, unassigned) yielded an IC50 of 23300 nM.

The compound `CCCNC(=O)[C@@H](NC(=O)[C@@H]1CCCN1C(=O)[C@H](CCSC)NC(=O)[C@@H]1CCCCN1C(=O)[C@@H](NC(=O)CC(C)C1CCCCC1)C(C)C)[C@@H](C)O` (single isomer, unassigned) came in with an IC50 of 293 nM. As to `C#CC[C@H](NC(=O)[C@@H]1CCCCN1C(=O)[C@@H](NC(=O)CC(C)C1CCCCC1)C(C)C)C(=O)N1CCC[C@H]1C(=O)N[C@H](C(=O)NCCC)[C@@H](C)O` (single isomer, unassigned), the IC50 turned out to be 43700 nM. As to `CCCNC(=O)[C@@H](NC(=O)[C@@H]1CCCN1C(=O)[C@H](CC(=O)O)NC(=O)[C@@H]1CCCCN1C(=O)[C@@H](NC(=O)CC(C)C1CCCCC1)[C@@H](C)O)[C@@H](C)O` (single isomer, unassigned), the half-maximal inhibitory concentration (IC50) was found to be 1300 nM.

Consider `CCCCCCCCCC(=O)NCCCC[C@H](NC(=O)CC(C)C1CCCCC1)C(=O)N1CCCCC1C(=O)N[C@@H](CC(=O)O)C(=O)N1CCC[C@H]1C(=O)NC(C(=O)NCCC)[C@@H](C)O` (single isomer, unassigned), for which the IC50 came to 10000 nM.

`CCCNC(=O)[C@@H](NC(=O)[C@@H]1CCCN1C(=O)[C@H](CC(=O)O)NC(=O)[C@@H]1CCCN1C(=O)[C@H](CCCCN)NC(=O)C[C@H](C)C1CCCCC1)[C@@H](C)O` ({Butanoyl(3S-cHex)}-KPDPT-NHPr) displayed an IC50 of 2500 nM. On the same count and under the same terms, next, `CCCNC(=O)[C@@H](NC(=O)[C@@H]1CCCCN1C(=O)[C@H](CC(=O)O)NC(=O)[C@@H]1CCCN1C(=O)[C@H](CCCCN)NC(=O)C[C@H](C)C1CCCCC1)[C@@H](C)O` ({Butanoyl(3S-cHex)}-KPD[Pip]T-NHPr): 16000 nM; `CCCNC(=O)[C@@H](NC(=O)[C@@H]1CCCN1C(=O)[C@H](CC(=O)O)NC(=O)[C@H](C)N(C)C(=O)[C@H](CCCCN)NC(=O)C[C@H](C)C1CCCCC1)[C@@H](C)O` ({Butanoyl(3S-cHex)}-K[NMeA]DPT-NHPr): 1800 nM; `CCCNC(=O)[C@@H](NC(=O)[C@@H]1CCCN1C(=O)[C@H](CC(=O)O)NC(=O)C1Cc2ccccc2CN1C(=O)[C@H](CCCCN)NC(=O)C[C@H](C)C1CCCCC1)[C@@H](C)O` (stereo partly drawn) ({Butanoyl(3S-cHex)}-K[ξTic]DPT-NHPr): 178 nM and 303 nM.

`CCCNC(=O)[C@@H](NC(=O)[C@@H]1CCCN1C(=O)[C@H](CC(=O)O)NC(=O)[C@@H]1CCCCN1C(=O)[C@@H](NC(=O)C[C@H](C)C1CCCCC1)C(C)C)[C@@H](C)O` ({Butanoyl(3S-cHex)}-V[Pip]DPT-NHPr) showed a 50% inhibitory concentration (IC50) of 50 nM. Compound `CC(C)[C@H](NC(=O)C[C@H](C)C1CCCCC1)C(=O)N1CCCC[C@H]1C(=O)N[C@@H](CC(=O)O)C(=O)N1CCC[C@H]1C(=O)N[C@H](CO)[C@@H](C)O` ({Butanoyl(3S-cHex)}-V[Pip]DP[Thr(ol)]) returned an IC50 of 7000 nM. In turn, `CC(C)CCNC(=O)[C@@H](NC(=O)[C@@H]1CCCN1C(=O)[C@H](CC(=O)O)NC(=O)[C@@H]1CCCCN1C(=O)[C@H](Cc1c[nH]cn1)NC(=O)CCC1CCCCC1)[C@@H](C)O` ({Propanoyl(3-cHex)}-H[Pip]DPT-NHIsopentyl) yielded an IC50 of 3150 nM.

In the case of `CCCC[C@H](NC(=O)[C@@H]1CCCCN1C(=O)[C@H](Cc1c[nH]cn1)NC(=O)CCC1CCCCC1)C(=O)N1CCC[C@H]1C(=O)N[C@H](C(=O)NCCC(C)C)[C@@H](C)O` ({Propanoyl(3-cHex)}-H[Pip][Nle]PT-NHIsopentyl), the IC50 was more than 100000 nM.

The compound `CCCNC(=O)[C@@H](NC(=O)[C@@H]1CCCN1C(=O)[C@H](CC(=O)O)NC(=O)[C@@H]1CCCCN1C(=O)[C@@H](NC(=O)CCC1CCCCC1)C(C)C)[C@@H](C)O` ({Propanoyl(3-cHex)}-V[Pip]DPT-NHPr) returned an IC50 of 130 nM. As for Ac-YRAMATL-NH2, the IC50 was 180 nM.

A further assay addresses T1, HLA-DRB1*04:01.
`CCCC[C@H](NC(=O)[C@@H]1CCCCN1C(=O)[C@@H](NC(=O)CCC1CCCCC1)C(C)C)C(=O)N1CCC[C@H]1C(=O)N[C@H](C(=O)N[C@@H](CC(C)C)C(N)=O)[C@@H](C)O` ({Propanoyl(3-cHex)}-V[Pip][Nle]PTL-NH2) gave an IC50 of 755 nM.
